Counter-ions that a name gives are not always drawn.
Tests used:
Conditions in all cases: activity in wells, twofold serial dilution assay; higher well number indicates higher activity
activated human C1 = experiment: Test Code 026 (C1 inhibitor); assay type: biochemical
From the text: (§1) An active inhibitor protects C2 from C1 and C4; (ii) Test Code 035 (C3-C9 inhibitor)--This test determines the ability of the late components of human complement (C3-C9) to lyse EAC 142 in the presence of appropriate dilutions of the test compound. An active inhibitor protects EAC 142 from lysis by human C3-C9; (iii) Test Code 036 (C-Shunt inhibitor)--In this test human erythrocytes rendered fragile are lysed in autologous serum via the shunt pathway activated by cobra venom factor in the presence of appropriate dilutions of the test compound. Inhibition of the shunt pathway results in failure of lysis; (iv) Forssman Vasculitis Test--Here, the well known complement dependent lesion, Forssman vasculitis, is produced in guinea pigs by intradermal injection of rabbit anti-Forssman antiserum. […]

[1] = test system: late components of human complement (C3-C9); experiment: Test Code 035 (C3-C9 inhibitor), lysis of EAC 142; assay type: biochemical
From the text: as §1

shunt pathway = experiment: Test Code 036 (C-Shunt inhibitor), lysis of fragile human erythrocytes in autologous serum, cobra venom factor activated; assay type: cell-based
From the text: as §1

SMILES | C1 026 Wells (activated human C1) | C-Late 035 Wells [1] | Shunt Inhibition 036 Wells (shunt pathway)
O=C(O)[C@H](OS(=O)(=O)O)[C@@H](OS(=O)(=O)O)[C@H](O[C@@H]1O[C@H](COS(=O)(=O)O)[C@H](OS(=O)(=O)O)[C@H](OS(=O)(=O)O)[C@H]1OS(=O)(=O)O)[C@@H](COS(=O)(=O)O)OS(=O)(=O)O [Lactobionic acid, octakis (H-sulfate) nonasodium salt] [Lactobionic acid, octakis (H-sulfate), nonasodium salt] | 8 Wells | 2 Wells | 5 Wells
O=C(O)[C@H](OS(=O)(=O)O)[C@@H](OS(=O)(=O)O)[C@H](O[C@@H]1O[C@H](COS(=O)(=O)O)[C@H](OS(=O)(=O)O)[C@H](OS(=O)(=O)O)[C@H]1OS(=O)(=O)O)[C@@H](COS(=O)(=O)O)OS(=O)(=O)O [Lactobionic acid, octakis (H-sulfate), nonatrimethylamine sa] [Lactobionic acid, octakis (H-sulfate), nonatrimethylamine salt] | 8 Wells | 2 Wells | 4 Wells

— US4258034A, “Lactobionic acid poly(H-sulfate) and salts thereof useful as complement inhibitors” (American Cyanamid Company, priority 1979, dated 1981)
